# Assays:
# Plasma [1] = test: Drug metabolism in conventional Wistar rat plasma assessed as 1,7-dihydroxyxanthone metabolite formation at 400 mg/kg, po administered as single dose by HPLC-DAD analysis; type: ADME, organism-based; set-up: dose 400 mg/kg, route oral; settings: in vivo
# [2] = Drug excretion in conventional Wistar rat urine assessed as unchanged drug level at 400 mg/kg, po administered as single dose by HPLC-DAD analysis; type: ADME, organism-based; set-up: dose 400 mg/kg, route oral; settings: in vivo
# [3] = Drug excretion in conventional Wistar rat urine assessed as norathyriol metabolite level at 400 mg/kg, po administered as single dose by HPLC-DAD analysis; type: ADME, organism-based; set-up: dose 400 mg/kg, route oral; settings: in vivo
# [4] = Drug excretion in conventional Wistar rat urine assessed as 1,7-dihydroxyxanthone metabolite level at 400 mg/kg, po administered as single dose by HPLC-DAD analysis; type: ADME, organism-based; set-up: dose 400 mg/kg, route oral; settings: in vivo
# [5] = Drug excretion in conventional Wistar rat feces assessed as unchanged drug level at 400 mg/kg, po administered as single dose by HPLC-DAD analysis; type: ADME, organism-based; set-up: dose 400 mg/kg, route oral; settings: in vivo
# [6] = Drug excretion in conventional Wistar rat feces assessed as norathyriol metabolite level at 400 mg/kg, po administered as single dose by HPLC-DAD analysis; type: ADME, organism-based; set-up: dose 400 mg/kg, route oral; settings: in vivo
# [7] = Drug excretion in conventional Wistar rat feces assessed as 1,7-dihydroxyxanthone metabolite level at 400 mg/kg, po administered as single dose by HPLC-DAD analysis; type: ADME, organism-based; set-up: dose 400 mg/kg, route oral; settings: in vivo
# Plasma [8] = test: Drug uptake in pseudo-germ free Wistar rat plasma at 400 mg/kg, po administered as single dose by HPLC-DAD analysis; type: ADME, organism-based; set-up: dose 400 mg/kg, route oral; settings: in vivo
# Plasma [9] = test: Drug metabolism in pseudo-germ free Wistar rat plasma assessed as norathyriol metabolite formation at 400 mg/kg, po administered as single dose by HPLC-DAD analysis; type: ADME, organism-based; set-up: dose 400 mg/kg, route oral; settings: in vivo
# Plasma [10] = test: Drug metabolism in pseudo-germ free Wistar rat plasma assessed as 1,7-dihydroxyxanthone metabolite formation at 400 mg/kg, po administered as single dose by HPLC-DAD analysis; type: ADME, organism-based; set-up: dose 400 mg/kg, route oral; settings: in vivo
# [11] = Drug excretion in pseudo-germ free Wistar rat urine assessed as unchanged drug level at 400 mg/kg, po administered as single dose by HPLC-DAD analysis; type: ADME, organism-based; set-up: dose 400 mg/kg, route oral; settings: in vivo
# [12] = Drug excretion in pseudo-germ free Wistar rat urine assessed as norathyriol metabolite level at 400 mg/kg, po administered as single dose by HPLC-DAD analysis; type: ADME, organism-based; set-up: dose 400 mg/kg, route oral; settings: in vivo
# [13] = Drug excretion in pseudo-germ free Wistar rat urine assessed as 1,7-dihydroxyxanthone metabolite level at 400 mg/kg, po administered as single dose by HPLC-DAD analysis; type: ADME, organism-based; set-up: dose 400 mg/kg, route oral; settings: in vivo
# [14] = Drug excretion in pseudo-germ free Wistar rat feces assessed as unchanged drug level at 400 mg/kg, po administered as single dose by HPLC-DAD analysis; type: ADME, organism-based; set-up: dose 400 mg/kg, route oral; settings: in vivo
# [15] = Drug excretion in pseudo-germ free Wistar rat feces assessed as norathyriol metabolite level at 400 mg/kg, po administered as single dose by HPLC-DAD analysis; type: ADME, organism-based; set-up: dose 400 mg/kg, route oral; settings: in vivo
# [16] = Drug excretion in pseudo-germ free Wistar rat feces assessed as 1,7-dihydroxyxanthone metabolite level at 400 mg/kg, po administered as single dose by HPLC-DAD analysis; type: ADME, organism-based; set-up: dose 400 mg/kg, route oral; settings: in vivo
# Plasma [17] = test: Drug uptake in streptozotocin-induced diabetic Wistar rat plasma at 400 mg/kg, po administered as single dose by HPLC-DAD analysis; type: ADME, organism-based; set-up: dose 400 mg/kg, route oral; settings: in vivo
# Plasma [18] = test: Drug metabolism in streptozotocin-induced diabetic Wistar rat plasma assessed as norathyriol metabolite formation at 400 mg/kg, po administered as single dose by HPLC-DAD analysis; type: ADME, organism-based; set-up: dose 400 mg/kg, route oral; settings: in vivo
# Plasma [19] = test: Drug metabolism in streptozotocin-induced diabetic Wistar rat plasma assessed as 1,7-dihydroxyxanthone metabolite formation at 400 mg/kg, po administered as single dose by HPLC-DAD analysis; type: ADME, organism-based; set-up: dose 400 mg/kg, route oral; settings: in vivo
# Plasma [20] = test: Drug level in streptozotocin-induced diabetic Wistar rat plasma treated with mangiferin at 400 mg/kg, po administered as single dose by HPLC-DAD analysis; type: ADME, organism-based; set-up: dose 400 mg/kg, route oral; settings: in vivo
# [21] = Drug excretion in streptozotocin-induced diabetic Wistar rat urine assessed as unchanged drug level at 400 mg/kg, po administered as single dose by HPLC-DAD analysis; type: ADME, organism-based; set-up: dose 400 mg/kg, route oral; settings: in vivo
# [22] = Drug excretion in streptozotocin-induced diabetic Wistar rat urine assessed as norathyriol metabolite level at 400 mg/kg, po administered as single dose by HPLC-DAD analysis; type: ADME, organism-based; set-up: dose 400 mg/kg, route oral; settings: in vivo
# [23] = Drug excretion in streptozotocin-induced diabetic Wistar rat urine assessed as 1,7-dihydroxyxanthone metabolite level at 400 mg/kg, po administered as single dose by HPLC-DAD analysis; type: ADME, organism-based; set-up: dose 400 mg/kg, route oral; settings: in vivo
# [24] = Drug excretion in streptozotocin-induced diabetic Wistar rat feces assessed as unchanged drug level at 400 mg/kg, po administered as single dose by HPLC-DAD analysis; type: ADME, organism-based; set-up: dose 400 mg/kg, route oral; settings: in vivo
# [25] = Drug excretion in streptozotocin-induced diabetic Wistar rat feces assessed as norathyriol metabolite level at 400 mg/kg, po administered as single dose by HPLC-DAD analysis; type: ADME, organism-based; set-up: dose 400 mg/kg, route oral; settings: in vivo
# [26] = Drug excretion in streptozotocin-induced diabetic Wistar rat feces assessed as 1,7-dihydroxyxanthone metabolite level at 400 mg/kg, po administered as single dose by HPLC-DAD analysis; type: ADME, organism-based; set-up: dose 400 mg/kg, route oral; settings: in vivo
# Rattus norvegicus = species on record: Rattus norvegicus; test: Drug retention time in Wistar rat by HPLC-DAD analysis; type: ADME, organism-based
# Plasma [27] = test: Stability in Wistar rat plasma measured for 24 hrs at room temperature by HPLC-DAD analysis; type: ADME, cell-free
# Plasma [28] = test: Stability in Wistar rat plasma measured within three freeze thaw cycles by HPLC-DAD analysis; type: ADME, cell-free
# Plasma [29] = test: Stability in Wistar rat plasma measured after storage at -80 degC for 20 days by HPLC-DAD analysis; type: ADME, cell-free; settings: 480 h
smiles,measurement,setting,value
O=c1c2cc(O)c(O)cc2oc2cc(O)c([C@@H]3O[C@H](CO)[C@@H](O)[C@H](O)[C@H]3O)c(O)c12 [MANGIFERIN],Drug metabolism,Plasma [1],metabolite_not_detected
same,Drug excretion,[2],metabolite_detected
same,Drug excretion,[3],metabolite_detected
same,Drug excretion,[4],metabolite_not_detected
same,Drug excretion,[5],metabolite_detected
same,Drug excretion,[6],metabolite_detected
same,Drug excretion,[7],metabolite_not_detected
same,Drug uptake,Plasma [8],Active
same,Drug metabolism,Plasma [9],metabolite_not_detected
same,Drug metabolism,Plasma [10],metabolite_not_detected
same,Drug excretion,[11],metabolite_detected
same,Drug excretion,[12],metabolite_not_detected
same,Drug excretion,[13],metabolite_not_detected
same,Drug excretion,[14],metabolite_detected
same,Drug excretion,[15],metabolite_not_detected
same,Drug excretion,[16],metabolite_not_detected
same,Drug uptake,Plasma [17],Active
same,Drug metabolism,Plasma [18],metabolite_not_detected
same,Drug metabolism,Plasma [19],metabolite_not_detected
same,Drug metabolism,Plasma [20],metabolite_detected
same,Drug excretion,[21],metabolite_detected
same,Drug excretion,[22],metabolite_detected
same,Drug excretion,[23],metabolite_detected
same,Drug excretion,[24],metabolite_detected
same,Drug excretion,[25],metabolite_detected
same,Drug excretion,[26],metabolite_not_detected
same,Retention_time,Rattus norvegicus,15.2 min
same,Stability,Plasma [27],Stable
same,Stability,Plasma [28],Stable
same,Stability,Plasma [29],Stable

# From ChEMBL document CHEMBL3525933 (Drug Metab Dispos, 2012)
